What was measured:
PIP4K2B = molecular target: T1, PIP4K2B (Homo sapiens, UniProt P78356); experiment: Trans-FI P kinase assay PIP4K2B (Table 4); assay type: biochemical; details: compounds listed under IC50 bins; read-out: Trans-FI P kinase assays: PIP4K2B IC50
T1 construct: made in house; host or cells: E. coli
T1 sequence (P78356 1-416): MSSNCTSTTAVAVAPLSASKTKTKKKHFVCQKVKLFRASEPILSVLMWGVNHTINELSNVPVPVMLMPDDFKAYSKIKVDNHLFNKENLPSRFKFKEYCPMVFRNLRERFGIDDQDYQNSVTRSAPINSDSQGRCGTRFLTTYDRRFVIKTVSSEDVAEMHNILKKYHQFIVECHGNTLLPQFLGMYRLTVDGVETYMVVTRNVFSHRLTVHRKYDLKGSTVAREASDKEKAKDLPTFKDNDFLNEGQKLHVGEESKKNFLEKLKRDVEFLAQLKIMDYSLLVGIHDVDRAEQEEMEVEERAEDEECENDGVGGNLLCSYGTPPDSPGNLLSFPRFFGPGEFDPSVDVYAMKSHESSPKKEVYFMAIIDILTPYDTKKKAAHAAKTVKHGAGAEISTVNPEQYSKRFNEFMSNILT
Summary of the method: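 Transcreener FI detection (Ex 584/Em 623) of GDP, converted via calibration curve, gives IC50 from residual activity versus log concentration (highest 4.8 μM). Reaction: 80 μM PI5P plus DOPE carrier, 100 μM GTP, 5 nM GST-tagged enzyme, pH 7.3 HEPES with MgCl2 and 5% DMSO, 2 h after 1 h enzyme-compound preincubation at 27° C.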

PIP4K2A = molecular target: T2, PIP4K2A (Homo sapiens, UniProt P48426); experiment: ADP-glo kinase assay PIP4K 2A (Table 3); assay type: biochemical; set-up: made in house; host or cells: E. coli; details: compounds listed under IC50 bins
T2 sequence (P48426 1-406): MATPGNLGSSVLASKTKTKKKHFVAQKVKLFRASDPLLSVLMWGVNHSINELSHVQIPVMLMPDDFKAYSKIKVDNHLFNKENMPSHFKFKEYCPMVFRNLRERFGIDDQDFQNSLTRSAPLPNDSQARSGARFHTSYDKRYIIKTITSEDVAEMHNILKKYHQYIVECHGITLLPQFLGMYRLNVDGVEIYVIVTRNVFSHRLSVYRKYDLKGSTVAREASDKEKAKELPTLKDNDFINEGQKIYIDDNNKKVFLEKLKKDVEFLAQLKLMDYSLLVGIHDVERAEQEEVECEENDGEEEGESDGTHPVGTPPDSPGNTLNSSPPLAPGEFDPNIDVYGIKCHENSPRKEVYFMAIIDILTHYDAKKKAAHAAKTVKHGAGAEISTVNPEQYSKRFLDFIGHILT
Description: Dilution series of the compounds were prepared in DMSO at 100 times the final assay concentration (n1=n0/3 in 10 points). The compounds were further diluted to three times the assay concentration in assay buffer (20 mM MOPS pH 7.2, 25 mM magnesium chloride, 0.005% Tween 20). 6 μL of the diluted compounds were added to a 384 well assay plate followed by 9 μL of a mix consisting of 4 nM PIP4K2A (full length protein, SignalChem) and 100 μM PI(5)P diC8 (Tebu-Bio). Enzyme and compounds were pre-incubated at room temperature for 15 minutes.
Then 3 μL of a solution containing 60 μM ATP (Promega) in assay buffer was added to the wells containing compound and enzyme and mixing was performed by pipetting several times. The reaction was incubated at room temperature for 1 h. Then 18 μL of ADP-Glo™ Reagent (Promega) was added to stop the kinase reaction and deplete the unconsumed ATP, mixing was performed by pipetting several times. The plate was incubated at room temperature for 40 minutes before addition of 36 μL of Kinase Detection Reagent (Promega) to convert ADP to ATP and introduce luciferase and luciferin to detect ATP. The reaction was incubated at room temperature for 40 minutes before the luminescence was measured in a in a Victor 3V 1420 multilabel counter (Perkin Elmer).
Percent inhibition of the compounds as compared to dimethyl sulfoxide treated control samples was calculated. Compound concentration versus percent inhibition were fitted to generate IC50 values. […]

SMILES | IC50 (PIP4K2B) [nM] | IC50 (PIP4K2A) [nM]
O=C(Nc1cncc(Nc2ccc(-c3ccc(N4CCCC4=O)cc3)cn2)c1)c1nn[nH]n1 [Example 254, N-(5-((5-(4-(2-oxopyrrolidin-1-yl)phenyl)pyridin-2-yl)amino)pyridin-3-yl)-2H-tetrazole-5-carboxamide] | 10 to 100 | 10 to 100
CC1(C)C[C@H]2COc3ncc(Nc4ccc(-c5ccc(N6CCCC6=O)cc5)cn4)cc3N2C1=O [Example 255, (S)-8,8-dimethyl-2-((5-(4-(2-oxopyrrolidin-1-yl)phenyl)pyridin-2-yl)amino)-6,6a,7,8-tetrahydro-9H-pyrido[2,3-b]pyrrolo[1,2-d][1,4]oxazin-9-one] | 10 to 100 | 1 to 10
CC1CN(C(=O)Nc2cncc(Nc3ccc(-c4ccc(N5CCCC5=O)cc4)cn3)c2)CCN1 (stereo not shown) [Example 256, 3-methyl-N-(5-((5-(4-(2-oxopyrrolidin-1-yl)phenyl)pyridin-2-yl)amino)pyridin-3-yl)piperazine-1-carboxamide] | 10 to 100 | 10 to 100
O=C(Nc1cncc(Nc2ccc(-c3ccc(N4CCCC4=O)cc3)cn2)c1)N1CCNC(C2CC2)C1 (stereo not shown) [Example 257, 3-cyclopropyl-N-(5-((5-(4-(2-oxopyrrolidin-1-yl)phenyl)pyridin-2-yl)amino)pyridin-3-yl)piperazine-1-carboxamide] | 10 to 100 | 100 to 1000
CC1C[C@H]2COc3ncc(Nc4ccc(-c5ccc(N6CCCC6=O)cc5)cn4)cc3N2C1=O (stereo partly drawn) [Example 259, (6aS)-8-methyl-2-((5-(4-(2-oxopyrrolidin-1-yl)phenyl)pyridin-2-yl)amino)-6,6a,7,8-tetrahydro-9H-pyrido[2,3-b]pyrrolo[1,2-d][1,4]oxazin-9-one] | 10 to 100 | 10 to 100
CC1C[C@H]2COc3ncc(Nc4ccc(-c5ccc(N6CCCC6=O)c(F)c5)cn4)cc3N2C1=O (stereo partly drawn) [Example 261, (6aS)-2-((5-(3-fluoro-4-(2-oxopyrrolidin-1-yl)phenyl)pyridin-2-yl)amino)-8-methyl-6,6a,7,8-tetrahydro-9H-pyrido[2,3-b]pyrrolo[1,2-d][1,4]oxazin-9-one] | 10 to 100 | 1 to 10
O=C(Nc1cncc(Nc2ccc(-c3ccc(N4CCCC4=O)cc3)cn2)c1)N1CCOC(C2CC2)C1 (stereo not shown) [Example 262, 2-cyclopropyl-N-(5-((5-(4-(2-oxopyrrolidin-1-yl)phenyl)pyridin-2-yl)amino)pyridin-3-yl)morpholine-4-carboxamide] | 10 to 100 | 100 to 1000
O=C1CCCN1c1ccc(-c2ccc(Nc3cnc4c(c3)N3C(=O)OC[C@H]3CO4)nc2)cc1 [Example 265, (R)-8-((5-(4-(2-oxopyrrolidin-1-yl)phenyl)pyridin-2-yl)amino)-3a,4-dihydro-1H,3H-oxazolo[3,4-d]pyrido[2,3-b][1,4]oxazin-1-one] | 10 to 100 | 1 to 10
CC(C)(N)c1cc(Nc2cnc3c(c2)N2C(=O)CC[C@H]2CO3)ncc1-c1ccc(N2CCCC2=O)cc1F [Example 266, (S)-2-((4-(2-aminopropan-2-yl)-5-(2-fluoro-4-(2-oxopyrrolidin-1-yl)phenyl)pyridin-2-yl)amino)-6,6a,7,8-tetrahydro-9H-pyrido[2,3-b]pyrrolo[1,2-d][1,4]oxazin-9-one] | 10 to 100 | 1 to 10

The remaining lines, values ahead:

IC50 (PIP4K2B) [nM] | IC50 (PIP4K2A) [nM] | SMILES
1 to 10 | ≤ 1 | O=C1CCCN1c1ccc(-c2cnc(Nc3cnc4c(c3)N3C(=O)C5(CC5)C[C@H]3CO4)cc2C2CC2)cc1 [Example 211, (S)-2′-((4-cyclopropyl-5-(4-(2-oxopyrrolidin-1-yl)phenyl)pyridin-2-yl)amino)-6a′,7′-dihydro-6′H,9′H-spiro[cyclopropane-1,8′-pyrido[2,3-b]pyrrolo[1,2-d][1,4]oxazin]-9′-one]
1 to 10 | ≤ 1 | COc1cc(Nc2cnc3c(c2)N2C(=O)C4(CC4)C[C@H]2CO3)ncc1-c1ccc(N2CCCC2=O)cc1 [Example 212, (S)-2′-((4-methoxy-5-(4-(2-oxopyrrolidin-1-yl)phenyl)pyridin-2-yl)amino)-6a′,7′-dihydro-6′H,9′H-spiro[cyclopropane-1,8′-pyrido[2,3-b]pyrrolo[1,2-d][1,4]oxazin]-9′-one]
1 to 10 | ≤ 1 | CC(C)c1nc(Nc2cnc3c(c2)N2C(=O)C4(CC4)C[C@H]2CO3)ncc1-c1ccc(N2CCCC2=O)cc1 [Example 216, (S)-2′-((4-isopropyl-5-(4-(2-oxopyrrolidin-1-yl)phenyl)pyrimidin-2-yl)amino)-6a′,7′-dihydro-6′H,9′H-spiro[cyclopropane-1,8′-pyrido[2,3-b]pyrrolo[1,2-d][1,4]oxazin]-9′-one]
10 to 100 | 100 to 1000 | O=C([C@@H]1CCOC1)N1CCN(c2cncc(Nc3ccc(-c4ccc(N5CCCC5=O)cc4)cn3)c2)CC1 [Example 244, (R)-1-(4-(6-((5-(4-(tetrahydrofuran-3-carbonyl)piperazin-1-yl)pyridin-3-yl)amino)pyridin-3-yl)phenyl)pyrrolidin-2-one]
10 to 100 | 100 to 1000 | O=C([C@H]1CCOC1)N1CCN(c2cncc(Nc3ccc(-c4ccc(N5CCCC5=O)cc4)cn3)c2)CC1 [Example 245, (S)-1-(4-(6-((5-(4-(tetrahydrofuran-3-carbonyl)piperazin-1-yl)pyridin-3-yl)amino)pyridin-3-yl)phenyl)pyrrolidin-2-one]
10 to 100 | 1 to 10 | O=C(Nc1cncc(Nc2ccc(-c3ccc(N4CCCC4=O)cc3)cn2)c1)C1CC1c1ccccc1 (stereo not shown) [Example 247, N-(5-((5-(4-(2-oxopyrrolidin-1-yl)phenyl)pyridin-2-yl)amino)pyridin-3-yl)-2-phenylcyclopropane-1-carboxamide]
10 to 100 | 1 to 10 | CCOc1ccc(C(=O)Nc2cncc(Nc3ccc(-c4ccc(N5CCCC5=O)cc4)cn3)c2)cn1 [Example 249, 6-ethoxy-N-(5-((5-(4-(2-oxopyrrolidin-1-yl)phenyl)pyridin-2-yl)amino)pyridin-3-yl)nicotinamide]
10 to 100 | 100 to 1000 | CC1CN(C(=O)Nc2cncc(Nc3ccc(-c4ccc(N5CCCC5=O)cc4)cn3)c2)CCO1 (stereo not shown) [Example 250, 2-methyl-N-(5-((5-(4-(2-oxopyrrolidin-1-yl)phenyl)pyridin-2-yl)amino)pyridin-3-yl)morpholine-4-carboxamide]
10 to 100 | 100 to 1000 | O=C(Nc1cncc(Nc2ccc(-c3ccc(N4CCCC4=O)cc3)cn2)c1)N1CCOCC1 [Example 251, N-(5-((5-(4-(2-oxopyrrolidin-1-yl)phenyl)pyridin-2-yl)amino)pyridin-3-yl)morpholine-4-carboxamide]
10 to 100 | 10 to 100 | COc1cc(C(=O)Nc2cncc(Nc3ccc(-c4ccc(N5CCCC5=O)cc4)cn3)c2)c2[nH]cnc2c1 [Example 253, 5-methoxy-N-(5-((5-(4-(2-oxopyrrolidin-1-yl)phenyl)pyridin-2-yl)amino)pyridin-3-yl)-1H-benzo[d]imidazole-7-carboxamide]
1 to 10 | 1 to 10 | O=C1CCCN1c1ccc(-c2ccc(Nc3cnc4c(c3)N3C(=O)C5(CC5)C[C@H]3CO4)nc2)cc1 [Example 260, (S)-2′-((5-(4-(2-oxopyrrolidin-1-yl)phenyl)pyridin-2-yl)amino)-6a′,7′-dihydro-6′H,9′H-spiro[cyclopropane-1,8′-pyrido[2,3-b]pyrrolo[1,2-d][1,4]oxazin]-9′-one]

From patent US11667651B2, “Aminopyridine derivatives as phosphatidylinositol phosphate kinase inhibitors” (HiberCell, Inc., priority 2017, dated 2023)
